# Data reported in patent US20130005699A1, “METHODS AND PRODUCTS FOR TREATMENT OF DISEASES” (DMI ACQUISITION CORP., priority 2009, published 2013).
# Columns and labels:
# HUVECs [1] = experiment: HUVEC invasion (BioCoat Matrigel Invasion Chambers); type: cell-based, human; details: 24 hours
# Method: BioCoat Matrigel Invasion Chambers were purchased from BD Biosciences (San Jose, Calif.). Inserts were rehydrated at 37° C. with 500 μl HBSS for 2 hours prior to use in humidified incubator. Trypsinized HUVECs were washed twice with warm EGM-2 containing 0.1% FCS and added to the upper chamber of the invasion insert at 100,000 cells in a total volume of 250 μl. […]. Non-invasive cells were removed from the upper chamber with moistened cotton swabs and then the inserts were washed twice with HBSS. The inserts were then submerged in 10 μM calcein AM prepared in HBSS and incubated for 4 hours. Fluorescence was determined in a microplate reader at 485 nm excitation and 595 nm emission.
# All data is presented as representative experiment done in triplicate. Differences between subsets were analyzed using student t-test in Microsoft Excel. P<0.05 was considered statistically significant.
# HUVECs [2] = experiment: HUVEC scratch migration assay; type: cell-based, human; details: for Mean pixels (gap): 24 hours, diluent control 1264.00
# Method: Passage 8 HUVECs, lot number 8750 (obtained from Lonza), were plated in 6-well plates (ICS BioExpress) in endothelial growth medium-2 (EGM-2) complete medium (obtained from Lonza). […] The monolayers were then “scratched” with a 1000 μl pipet tip and washed two times with warm EGM-2 medium. […] The wells were photographed again. The gaps were measured in each photograph using Adobe Photoshop software, and gap measurements are presented as the number of pixels in the gap.
# [3] = system: human retinal endothelial cells; experiment: TER of endothelial cell monolayers (Example 4), retinal; type: cell-based; details: Danazol 1.0 μM, TER measurements/cm^2 of insert, blank subtracted
# Method: (§1) […]. Assays were also performed in the same manner using passage 8 human brain endothelial cells and passage 8 human umbilical vein endothelial cells.
# (§2) An initial TER measurement was taken for each insert using EVOM^2 voltohmmeter connected to an STX100 electrode (both from World Precision Instruments). Measurements were also taken at 24, 48, 72 and 144 hours. All data are presented as TER measurements/cm^2 of insert with TER of blank inserts subtracted.
# [4] = system: Human Brain Endothelial Cells; experiment: TER of endothelial cell monolayers (Example 4), brain; type: cell-based; details: Danazol 1.0 μM, TER measurements/cm^2 of insert, blank subtracted
# Method: as §1, §2
# [5] = system: Human Umbilical Vein Endothelial Cells; experiment: TER of endothelial cell monolayers (Example 4), umbilical vein; type: cell-based; details: Danazol 1.0 μM, TER measurements/cm^2 of insert, blank subtracted
# Method: as §1, §2
# [6] = system: human retinal endothelial cells; experiment: Actin stress fiber formation, rhodamine-phalloidin staining, VEGF (Example 8); type: cell-based; details: for change of the VEGF stress fiber pattern: then VEGF 25 ng/ml 30 minutes; for F-actin staining pattern: no VEGF
# Method: . […] To counter-stain for nuclei, 100 μl of a 3 μM DAPI (4,6-diamidino-2-phenylindole, dilactate (Invitrogen)) solution was added to each well. After 5 minutes, the cells were washed two times with 100 μl PBS.
# [7] = system: human renal glomerular microvascular endothelial cells; experiment: ECIS resistance (Example 12), glomerular cells; details: danazol 1 μM alone
# [8] = system: human renal glomerular microvascular endothelial cells; experiment: ECIS resistance (Example 13), glomerular cells, medium without dexamethasone
# [9] = system: human retinal endothelial cells; experiment: Actin stress fiber formation, rhodamine-phalloidin staining, TNFα (Example 7); details: 30 minutes
# [10] = system: human retinal endothelial cells; experiment: TER of retinal endothelial cell monolayers with danazol and steroid receptor antagonists (Example 6); details: 0.1 μM of each additive, background subtracted, divided by 0.33 cm^2
compound,measurement,setting,value
"C#C[C@]1(O)CC[C@H]2[C@@H]3CCC4=Cc5oncc5C[C@]4(C)[C@H]3CC[C@@]21C [Danazol, 17α-pregna-2,4-dien-20-yno[2,3-d]-isoxazol-17β-ol]",effect on FCS-induced cell invasion,HUVECs [1]; 10 μM,no effect
same,effect on FCS-induced cell invasion,HUVECs [1]; 100 μM,no effect
same,Mean pixels (gap),HUVECs [2]; Danazol 10 μM,1004.00 pixels
same,Mean pixels (gap),HUVECs [2]; Danazol 25 μM,1184.00 pixels
same,Mean pixels (gap),HUVECs [2]; Danazol 50 μM,895.33 pixels
same,Mean pixels (gap),HUVECs [2]; Danazol 75 μM,317.33 pixels
same,Mean pixels (gap),HUVECs [2]; Danazol 100 μM,178.67 pixels
same,inhibition at 10 µM,"HUVECs [2]; Homo sapiens, HUVEC, 24 h",21.1%
same,inhibition at 25 µM,"HUVECs [2]; Homo sapiens, HUVEC, 24 h",5.5%
same,inhibition at 50 µM,"HUVECs [2]; Homo sapiens, HUVEC, 24 h",27.6%
same,inhibition at 75 µM,"HUVECs [2]; Homo sapiens, HUVEC, 24 h",74.6%
same,inhibition at 100 µM,"HUVECs [2]; Homo sapiens, HUVEC, 24 h",85.9%
same,TER at 0 Hours,[3]; None 32.3,21.7
same,TER at 24 Hours,[3]; None 96.0,132.3
same,TER at 48 Hours,[3]; None 144.4,182.3
same,TER at 72 Hours,[3]; None 148.0,217.7
same,TER at 144 Hours,[3]; None 219.7,234.8
same,TER at 0 Hours,[4]; None 41.4,32.3
same,TER at 24 Hours,[4]; None 115.7,139.9
same,TER at 144 Hours,[4]; None 151.5,125.8
same,TER at 72 Hours,[4]; None 154.0,149.5
same,TER at 48 Hours,[4]; None 176.3,188.4
same,TER at 0 Hours,[5]; None 82.3,70.2
same,TER at 24 Hours,[5]; None 217.2,246.0
same,TER at 72 Hours,[5]; None 226.8,270.7
same,TER at 144 Hours,[5]; None 227.3,286.4
same,TER at 48 Hours,[5]; None 276.3,364.1
same,change of the VEGF stress fiber pattern,[6]; danazol 0.1 μM 30 minutes,made the stress fibers less pronounced and some diffuse staining appeared
same,F-actin staining pattern,[6]; danazol 0.1 μM,diffuse F-actin staining throughout the cytoplasm
same,change of the VEGF stress fiber pattern,[6]; danazol 1.0 μM 30 minutes,"showed fewer thick stress fibers, but focal points were seen on contact surfaces"
same,F-actin staining pattern,[6]; danazol 1.0 μM,"the diffuse staining persisted, but stress fibers and focal points around the perimeter of most cells were visible"
same,change of the VEGF stress fiber pattern,[6]; danazol 10.0 μM 30 minutes,showed strong stress fiber development with focal points
same,F-actin staining pattern,[6]; danazol 10.0 μM,stress fiber development and focal points were seen
same,period of greatest increase of ECIS,[7],60 to 90 h
same,persistence of increased ECIS,[8]; danazol 1 μM alone,about 90 hours
same,start of increase of ECIS compared to untreated cells,[8]; danazol 1 μM alone,about 3 hours
same,enhancement of ECIS (TER) compared to dexamethasone,[8]; danazol 1 μM versus dexamethasone 1 μM,not as great
same,effect on stress fiber development with TNFα,"[9]; danazol 0.1 μM or 10 μM, TNFα 50 ng/ml",decreased the number of cells exhibiting stress fiber development
same,F-actin staining pattern,[9]; danazol 0.1 μM,diffuse staining throughout the cytoplasm
same,F-actin staining pattern,[9]; danazol 10.0 μM,stress fibers with multiple focal points
same,TER at 30 minutes,[10]; None 216.22,255.26
same,TER at 120 minutes,[10]; None 234.23,249.35
same,TER at 60 minutes,[10]; None 249.25,267.27
same,TER at 24 Hours,[10]; None 312.31,366.37
